{"source": "patent US10420810B2", "about": "“Traditional Chinese medicine composition for the treatment of diabetic retinopathy” (priority 2015, dated 2019)", "assay_type_in_all_cases": "in vivo, rat", "key": {"[1]": {"test_system": "retina", "experiment": "HE staining of retinal paraffin sections, STZ diabetic rats (Experiment 3)", "settings": "9 months, result in words", "description": "(§1) 48 SPF-grade SD rats, male, 6 weeks old, (220±20) g in weight, were purchased from Huafukang Biotechnology Co., Ltd. After one-week's adaptive feeding, the rats were randomized into the modeling group (36 rats) and normal group (12 rats). The rats were fasted for 12 hours before modeling and given 1% STZ solution according to the body weight of 60 mg/kg via one intraperitoneal injection to induce experiment diabetic rat models. Rats in the normal group were injected with normal saline of the same volume. Blood glucose was monitored 72 hours later, blood was collected via caudal vein, and the modeling was deemed as successful when the blood glucose was ≥16.7 mmol/L for 3 consecutive days; after successful modeling, rats were randomized into the model group (12 rats), TCM composition experiment group (abbreviated as the experiment group, containing 12 rats) and Doxium group (abbreviated as the control group, containing 12 rats). Rats in the experiment group and control group were dosed on the next day after successful modeling. The administered dose of the experiment group was 10 ml/(kg·d) and that of the control group was 250 mg/(kg·d), with the Doxium powders dissolved in 2 mL distilled water. […] In the experiment period, all the rats were given food and drinking water at regular times each day; the changes in the body weight and blood glucose of rats were monitored monthly. […]"}, "[2]": {"test_system": "iris vessels of diabetic rats", "experiment": "Diameter of iris vessels in STZ diabetic rats", "settings": "300 days, result in words", "description": "(§2) The modeling was the same as that of Experiment 2. After successful modeling, diabetic rats were randomized into the model group (20 rats), experiment group (30 rats, given the TCM composition prepared according to Experiment 1), control group (Doxium group, 20 rats) and normal group (12 rats). The experiment lasted 300 days. 1.2 Observation Methods and Outcome Measures: The iris blood flow velocity, diameter of iris vessels, density of iris microvessels, endothelial structure of iris microvessels, permeability of iris microvessels and iris unit area blood perfusion volume were observed by the iris vascular perfusion scan and iris fluorescein angiography."}, "[3]": {"test_system": "retina", "experiment": "Retinal electron microscopy, STZ diabetic rats (Experiment 3)", "settings": "9 months, result in words", "description": "as §1"}, "[4]": {"test_system": "VEGF", "experiment": "Immunohistochemistry of retinal paraffin sections: whole-layer retinal VEGF expression (Experiment 3)", "settings": "STZ diabetic rats, 9 months, x ± s", "description": "as §1"}, "[5]": {"test_system": "iris vessels of diabetic rats", "experiment": "Iris unit area blood perfusion volume (laser Doppler scanning) in STZ diabetic rats", "settings": "x ± s", "description": "as §2"}, "[6]": {"test_system": "retinal capillaries", "experiment": "Microscopic observation of retinal vascular digest preparation, STZ diabetic rats (Experiment 3)", "settings": "9 months, PAS staining, result in words", "description": "as §1"}, "[7]": {"test_system": "iris vessels of diabetic rats", "experiment": "Iris blood flow velocity in STZ diabetic rats", "settings": "x ± s", "description": "as §2"}}}
{"smiles": "O=S(=O)(O)c1cc(O)ccc1O", "note": "[Doxium]", "values": [{"measurement": "Light microscopic observation of HE-stained retinal paraffin sections", "setting": "[1]", "value": "the retinal net structure was loose, internal and external granular layers were arranged in a disordered manner, capillaries were dilated, and interstitial edema can be noted"}, {"measurement": "Diameter of iris vessels compared to the model group", "setting": "[2]", "value": "no statistically significant difference between the Doxium group and model group"}, {"measurement": "Retinal ultrastructure observation (electron microscopy)", "setting": "[3]", "value": "the vascular walls of retinal capillaries were still regular and smooth, basement membranes were thickened"}, {"measurement": "Whole-layer Retinal VEGF Expression (Gray-scale values), Mean Optical Density Value", "setting": "[4]", "value": "0.43 ± 0.09"}, {"measurement": "Iris Unit Area Blood Perfusion Volume, Post-treatment", "setting": "[5]; 300 days", "value": "133.71 ± 6.89"}, {"measurement": "Iris Unit Area Blood Perfusion Volume, Pre-treatment", "setting": "[5]; baseline", "value": "607.45 ± 194.19"}, {"measurement": "Microscopic observation of retinal vascular digest preparation", "setting": "[6]", "value": "retinal microvascular changes were significantly prevented or delayed"}, {"measurement": "Blood Flow Velocity Index, Post-treatment", "setting": "[7]; 300 days", "value": "3.25 ± 0.81", "unit": "min"}, {"measurement": "Blood Flow Velocity Index, Pre-treatment", "setting": "[7]; baseline", "value": "1.07 ± 0.07", "unit": "min"}]}
